Assay results as given in US20240270811A1, “Glycosylated Neuropeptide Derivative, Pharmaceutical Composition, Intranasal/Nasal Drop Formulation, and Use of Pharmaceutical Composition” (Tokyo University of Science Foundation, priority 2021, published 2024).
Where no end group is shown, it is not given here. The star is where a group is joined. X1 = CC(=O)N[C@@H]1[C@@H](O)[C@H](O[C@@H]2O[C@H](CO)[C@@H](O[C@@H]3O[C@H](CO[C@H]4O[C@H](CO)[C@@H](O)[C@H](O)[C@@H]4O[C@@H]4O[C@H](CO)[C@@H](O[C@@H]5O[C@H](CO[C@]6(C(=O)O)C[C@H](O)[C@@H](NC(C)=O)[C@H]([C@H](O)[C@H](O)CO)O6)[C@H](O)[C@H](O)[C@H]5O)[C@H](O)[C@H]4NC(C)=O)[C@@H](O)[C@H](O[C@H]4O[C@H](CO)[C@@H](O)[C@H](O)[C@@H]4O[C@@H]4O[C@H](CO)[C@@H](O[C@@H]5O[C@H](CO[C@]6(C(=O)O)C[C@H](O)[C@@H](NC(C)=O)[C@H]([C@H](O)[C@H](O)CO)O6)[C@H](O)[C@H](O)[C@H]5O)[C@H](O)[C@H]4NC(C)=O)[C@@H]3O)[C@H](O)[C@H]2NC(C)=O)[C@@H](CO)O[C@H]1NC(=O)C*

Assays:
[1] = Migration to central nervous system, optical imaging of brain sagittal sections (ICG-labelled derivatives); format: in vivo, mouse; details: for fluorescence in brain section: 3.0 nmol/4 μL intranasal
Description: Administration solutions were prepared by completely dissolving a PAS-CPP-GLP-2 derivative (no sugar) labelled with ICG or a PAS-CPP-GLP-2 derivative (11-sugar) labelled with ICG in DMSO, and adjusting the final concentration of DMSO to 16% by adding PBS.
(§1) The concentration of a PAS-CPP-GLP-2 derivative (no sugar) or a PAS-CPP-GLP-2 derivative (11-sugar) was adjusted to 3.0 nmol/4 μL.
After anesthetizing mice with isoflurane using an all-in-one small animal anesthetizer, the administration solutions or 16% DMSO as a control was intranasally administered to the mice by the amount of 2 μL per nose cavity, 4 μL in total.
In order to observe the migration to the brain over time, the brain was isolated 5 minutes, 10 minutes, 20 minutes, 60 minutes and 90 minutes after the intranasal administration, respectively, and subjected to infiltration fixation with 4% paraformaldehyde (4% PFA) solution overnight. Subsequently, a sagittal section with a thickness of 2 mm at the left and the right from the center of the brain was prepared using a brain matrix (RBM-2000S, ASI). The section was placed in a dish and analyzed with an optical imaging apparatus (Clairvivo OPT plus, Shimadzu Corporation) at an excitation wavelength of 785 nm, fluorescence wavelength of 849 nm, and an exposure time: 6 seconds.

[2] = Solubility of GLP-2/GLP-1 derivatives with respect to aqueous medium (PBS); format: physicochemical; details: for solubility with respect to PBS (FIG. 1): freeze-dried 5-200 nmol/tube, PBS added, ultrasonic treatment, overnight, supernatant OD 280 nm
Description: Samples were prepared by dispensing a Milli-Q aqueous solution of PAS-CPP-GLP-2 (no sugar), PAS-CPP-GLP-2 (5-sugar) or PAS-CPP-GLP-2 (11-sugar) to a microtube by an amount of 5 nmol/tube, 30 nmol/tube, 60 nmol/tube, 120 nmol/tube or 200 nmol/tube, and freeze-drying the same. The freeze-dried samples were added with […] of PBS (Dulbecco's Phosphate Buffered Saline; Sigma-Aldrich, herein after the same), subjected to ultrasonic treatment, and allowed to stand overnight. Thereafter, the concentration of the peptide was measured. Specifically, a supernatant obtained by centrifuging the sample suspension was subjected to the measurement of OD (280 nm) with a spectrometer (NanoDrop™ 2000c spectrometer; Thermo Fisher Scientific K.K.)
Administration solutions were prepared by mixing a PAS-CPP-GLP-2 derivative (no sugar) or a PAS-CPP-GLP-2 derivative (11-sugar) with PBS. […] The concentration of each GLP-2 derivative was adjusted to 0.6 nmol/4 μL.
as §1

[3] = Distribution in brain by immunostaining of frozen brain sections (Example 6); format: in vivo, mouse; details: 3.0 nmol/4 μL intranasal
Description: The distribution in the brain of a glycosylated GLP-2 derivative (11-sugar) after intranasally administered was evaluated by preparing frozen brain sections and subjecting the same to immunostaining. The brain sections were prepared from tissues around the hippocampus (HIP), dorsomedial nucleus of the hypothalamus (DMH), olfactory bulb (OB), and pons/principal sensory nucleus of trigeminal nerve (Pr5). The olfactory bulb includes olfactory nerves, which are assumed to be a pathway for the migration of GLP-2.
After anesthetizing 7-week-old male ddY mice with isoflurane using an all-in-one small animal anesthetizer, a 16% DMSO solution of a PAS-CPP-GLP-2 derivative (11-sugar) (3.0 nmol/4 μL) or 16% DMSO as a control was intranasally administered to the mice by the amount of 2 μL per nose cavity, 4 μL in total. The brain was isolated 5 minutes after the administration and 20 minutes after administration.
The brain isolated 5 minutes after the intranasal administration was subjected to infiltration fixation with 4% PFA at 4° C. overnight without performing perfusion fixation. The isolation of the brain 20 minutes after the intranasal administration was performed by the following process.
The mouse is fixed in a supine position under anesthesia with isoflurane, and the chest was incised. PBS and 4% PFA were perfused, in this order, from the left chamber of the heart throughout the whole body for fixing the tissue. The isolated brain was preserved in a 4% PFA solution. On the day following the isolation, the brain samples were substituted with 20% sucrose overnight (4° C.), and further with 30% sucrose overnight (4° C.). Thereafter, a frozen section with a thickness of 30 μm was prepared using a cryostat (CM3050S; Leica Microsystems).
The frozen brain section was mounted on a slide glass, and a circle was drawn around the section with a liquid blocker. A blocking buffer was added inside the circle and the section was subjected to blocking for 30 minutes at room temperature. Thereafter, the section was added with a first antibody solution including a GLP-2 polyclonal antibody, diluted 200 times with a blocking solution, and subjected to incubation for 1 hour at room temperature. After washing three times with 1×PBS, the section was added with a second antibody solution including Alexa Fluor (trademark) 568 Goat Anti-Mouse IgG H&L, diluted 500 times with a BSA/PBS solution, and subjected to incubation for 1 hour at room temperature. After washing three times with 1×PBS, the section was mounted with ProLong (trademark) Diamond Antifade Mountant. After confirming the solidification of the mountant, the section was subjected to fluorescent observation and imaging with a confocal laser microscope (TCS SP8; Leica) and a software (Leica Application Suite X Software; Leica).

FFLIPKGRRRRRRRRGGHADGSFSDEMNTILDNLAARDFINWLIQTKITDC(X1)-OH [PAS-CPP-GLP-2 (11-sugar)]
fluorescence in brain section ([1]; 5 minutes after administration): fluorescence was observed | fluorescence in brain section ([1]; 10 minutes after administration): fluorescence was observed intensively | fluorescence in brain section ([1]; 20 minutes after administration): fluorescence was observed | fluorescence in brain section ([1]; 60 minutes after administration): a relatively strong degree of fluorescence was observed | fluorescence in brain section ([1]; 90 minutes after administration): fluorescence was not observed | retention in brain compared with PAS-CPP-GLP-2 derivative (no sugar) ([1]; intranasal, 5-90 minutes): remains in the brain for a longer time period | solubility in PBS ([2]; PBS): completely soluble in PBS | solubility with respect to PBS (FIG. 1) ([2]; listed as GLP-2 derivatives (11-sugar)): linearly improved | solubility with respect to PBS (FIG. 1) ([2]; listed as glycosylated GLP-2 derivative (11-sugar)): improved solubility | state of derivative in PBS administration solution ([2]; mixed with PBS, 0.6 nmol/4 μL): completely dissolved | fluorescence at region around Pr5 ([3]; 5 minutes): fluorescence was observed intensely | fluorescence at the other regions (HIP, DMH, OB) ([3]; 5 minutes): very little fluorescence was observed | fluorescence at DMH ([3]; 20 minutes): observed clearly | fluorescence at HIP ([3]; 20 minutes): fluorescence was observed | fluorescence at Pr5 ([3]; 20 minutes): florescence was observed | fluorescence intensity at OB ([3]; 20 minutes): weak
